Measured values from patent US11839679B2, “Gamma-diketones for treatment and prevention of aging skin and wrinkles” (BioSplice Therapeutics, Inc., priority 2014, dated 2023).

System: fine lines, wrinkles in the outer canthus of the eyes (crow's feet area)
Experiment: Roughness reduction [SEr] via Visioscan, Example 1
Format: in vivo, human
Parameters: Roughness [SEr] via Visioscan / Roughness [SEr] via Visioscan, Mean: scale not given here
Procedure: Three groups of women were recruited to evaluate and compare the efficacy of three anti-aging test products (targeting the periorbital eye area) intended to reduce the appearance of fine lines, wrinkles in the outer canthus of the eyes (crow's feet area) over a 12 week period. Wrinkle assessment was conducted instrumentally using a Visioscan image analysis system. Effectiveness of the test product was evaluated using panelist self-assessment via questionnaire responses comprised of 3-4 questions (Q1, Q2, Q3 & Q4). Each stage in the progression of treatments was photographically documented using a High Resolution Scientifically Matched Photography technique. Image analysis was utilized to quantify changes in fine lines and crow's feet condition observed in the Scientifically Matched Photographs.
Subject Selection: • Number: Six subjects (two per group) to complete the study. • Sex: Females • Race: Caucasian/Asian/Hispanic • Age Range: 40 through 60 years old
Test samples: • Topical 0.15% of Compound #222 in Oil (a 50/50 mixture of • Propylene Glycol Dicaprylate/Dicaprate and Caprylic/Capric Triglyceride) (Cohort 1) • Topical 0.15% of Compound #222 in PEG400 (Cohort 2) • Topical 0.05% of Compound #222 in PEG400 (Cohort 3)
Prior to baseline measurements being taken, areas of involvement were marked on the facial surface using a standard template, to ensure that instruments were repositioned in the same location at each visit. The biophysical measurements (Surface Evaluation of Living Skin via Visioscan) were conducted by a trained technician. Pre-treatment High Resolution Scientifically Matched Photographs were taken.
[…] After acclimating to ambient conditions, High Resolution Scientifically Matched Photographs were be taken and biophysical measurements (Surface Evaluation of Living Skin via Visioscan) were repeated using the standard template to identify test sites on the face. In addition (during the acclimation period) all participants were be asked to fill out a self-assessment questionnaire.
Surface Evaluation of Living Skin Visioscan: The Visioscan (Courage and Khazaka) took a direct image of the living skin using a measuring head containing a CCD-camera and two metal halogen lamps positioned opposite each other in order to ensure even illumination of the measuring field on the skin (Skin Pharmacol Appl Skin Physiol (1999), 12(1-2), 1-11 and Cosmetic & Toiletries magazine (2009), 124(6), 51-54). The grey level distribution of the pixels in the image correspond to different phenomena (white pixels represent desquamation on the skin, dark pixels represent lines and wrinkles). The software with the Visioscan automatically calculates skin smoothness, skin roughness, scaliness and wrinkle parameters. […]
The source data was Visioscan and PhotoGrammetrix Image Analysis readings along with subjective assessments, which were totaled and reported as average scores. Photographs were placed side by side as to compare the photographs of before and after application of the test product in the eye area. […] The data obtained via Visioscan and from PhotoGrammetrix Image Analysis was quoted as % differences from baseline at each of the previously described time points. A paired t-test analysis was conducted in order to compare the results of post test product application measurements to baseline measurements where applicable. Statistical significance was established if p≤(α=0.05) was calculated.

SMILES: O=C(CCC(=O)c1ccc2c(c1)OCO2)c1ccccc1 [#222]
- Roughness [SEr] via Visioscan, Mean (Day 7, Topical 0.05% in PEG (Cohort 3)): 1.64
- Roughness [SEr] via Visioscan, Mean (Day 7, Topical 0.15% in Oil (Cohort 1)): 1.97
- Roughness [SEr] via Visioscan, Mean (Day 7, Topical 0.15% in PEG (Cohort 2)): 1.67
- Roughness [SEr] via Visioscan, % Difference of Mean (Day 7 vs Baseline, Topical 0.05% in PEG (Cohort 3)): −20.24%
- Roughness [SEr] via Visioscan, % Difference of Mean (Day 7 vs Baseline, Topical 0.15% in Oil (Cohort 1)): −10.36%
- Roughness [SEr] via Visioscan, % Difference of Mean (Day 7 vs Baseline, Topical 0.15% in PEG (Cohort 2)): −10.19%
- Roughness [SEr] via Visioscan, Mean (Day 14, Topical 0.05% in PEG (Cohort 3)): 1.51
- Roughness [SEr] via Visioscan, Mean (Day 14, Topical 0.15% in Oil (Cohort 1)): 1.77
- Roughness [SEr] via Visioscan, Mean (Day 14, Topical 0.15% in PEG (Cohort 2)): 1.62
- Roughness [SEr] via Visioscan, % Difference of Mean (Day 14 vs Baseline, Topical 0.05% in PEG (Cohort 3)): −26.59%
- Roughness [SEr] via Visioscan, % Difference of Mean (Day 14 vs Baseline, Topical 0.15% in Oil (Cohort 1)): −19.36%
- Roughness [SEr] via Visioscan, % Difference of Mean (Day 14 vs Baseline, Topical 0.15% in PEG (Cohort 2)): −12.53%
- Roughness [SEr] via Visioscan (Subject #1, Day 7, Topical 0.15% in Oil (Cohort 1)): 2.46
- Roughness [SEr] via Visioscan, Individual % Difference (Subject #1, Day 7 vs Baseline, Topical 0.15% in Oil (Cohort 1)): −1.60%
- Roughness [SEr] via Visioscan (Subject #1, Day 14, Topical 0.15% in Oil (Cohort 1)): 2.25
- Roughness [SEr] via Visioscan, Individual % Difference (Subject #1, Day 14 vs Baseline, Topical 0.15% in Oil (Cohort 1)): −9.82%
- Roughness [SEr] via Visioscan (Subject #2, Day 7, Topical 0.15% in Oil (Cohort 1)): 1.48
- Roughness [SEr] via Visioscan, Individual % Difference (Subject #2, Day 7 vs Baseline, Topical 0.15% in Oil (Cohort 1)): −21.90%
- Roughness [SEr] via Visioscan (Subject #2, Day 14, Topical 0.15% in Oil (Cohort 1)): 1.29
- Roughness [SEr] via Visioscan, Individual % Difference (Subject #2, Day 14 vs Baseline, Topical 0.15% in Oil (Cohort 1)): −31.93%
- Roughness [SEr] via Visioscan (Subject #3, Day 7, Topical 0.15% in PEG (Cohort 2)): 1.95
- Roughness [SEr] via Visioscan, Individual % Difference (Subject #3, Day 7 vs Baseline, Topical 0.15% in PEG (Cohort 2)): −11.79%
- Roughness [SEr] via Visioscan (Subject #3, Day 14, Topical 0.15% in PEG (Cohort 2)): 1.90
- Roughness [SEr] via Visioscan, Individual % Difference (Subject #3, Day 14 vs Baseline, Topical 0.15% in PEG (Cohort 2)): −13.83%
- Roughness [SEr] via Visioscan (Subject #4, Day 7, Topical 0.15% in PEG (Cohort 2)): 1.39
- Roughness [SEr] via Visioscan, Individual % Difference (Subject #4, Day 7 vs Baseline, Topical 0.15% in PEG (Cohort 2)): −7.84%
- Roughness [SEr] via Visioscan (Subject #4, Day 14, Topical 0.15% in PEG (Cohort 2)): 1.35
- Roughness [SEr] via Visioscan, Individual % Difference (Subject #4, Day 14 vs Baseline, Topical 0.15% in PEG (Cohort 2)): −10.63%
- Roughness [SEr] via Visioscan (Subject #5, Day 7, Topical 0.05% in PEG (Cohort 3)): 1.83
- Roughness [SEr] via Visioscan, Individual % Difference (Subject #5, Day 7 vs Baseline, Topical 0.05% in PEG (Cohort 3)): −29.07%
- Roughness [SEr] via Visioscan (Subject #5, Day 14, Topical 0.05% in PEG (Cohort 3)): 1.77
- Roughness [SEr] via Visioscan, Individual % Difference (Subject #5, Day 14 vs Baseline, Topical 0.05% in PEG (Cohort 3)): −31.40%
- Roughness [SEr] via Visioscan (Subject #6, Day 7, Topical 0.05% in PEG (Cohort 3)): 1.44
- Roughness [SEr] via Visioscan, Individual % Difference (Subject #6, Day 7 vs Baseline, Topical 0.05% in PEG (Cohort 3)): −5.26%
- Roughness [SEr] via Visioscan (Subject #6, Day 14, Topical 0.05% in PEG (Cohort 3)): 1.24
- Roughness [SEr] via Visioscan, Individual % Difference (Subject #6, Day 14 vs Baseline, Topical 0.05% in PEG (Cohort 3)): −18.42%
